Earlier results as cited in patent publication US20110263720A1, “SYNTHESIS OF ALPHA-TOCOPHEROLQUINONE DERIVATIVES, AND METHODS OF USING THE SAME” (Penwest Pharmaceuticals Co., priority 2010, published 2011).

System: mitochondrial function
Conditions: in vitro; compared with CoQ10; background statement, no data

Structure (SMILES): CC1=C(C)C(=O)C(CC[C@](C)(O)CCC[C@H](C)CCC[C@H](C)CCCC(C)C)=C(C)C1=O [R,R,R-alpha-tocopherolquinone]
- potency in enhancing mitochondrial function: far more potent than CoQ^10
